How the values were obtained:
Assay type in all cases: biochemical
secretory G4 = target: T1, secretory G4 (Homo sapiens, UniProt Q9Y2A9, R328H); test: β1,3-galactosyltransferase activity of the secretory G4; details: receptor substrate 10 mmol/l, 37° C., 16 hours
T1 construct: made in house; host or cells: Sf21 insect cells infected with recombinant baculovirus from pVL1393-F2G4
T1 sequence (Q9Y2A9 38-372 R328H): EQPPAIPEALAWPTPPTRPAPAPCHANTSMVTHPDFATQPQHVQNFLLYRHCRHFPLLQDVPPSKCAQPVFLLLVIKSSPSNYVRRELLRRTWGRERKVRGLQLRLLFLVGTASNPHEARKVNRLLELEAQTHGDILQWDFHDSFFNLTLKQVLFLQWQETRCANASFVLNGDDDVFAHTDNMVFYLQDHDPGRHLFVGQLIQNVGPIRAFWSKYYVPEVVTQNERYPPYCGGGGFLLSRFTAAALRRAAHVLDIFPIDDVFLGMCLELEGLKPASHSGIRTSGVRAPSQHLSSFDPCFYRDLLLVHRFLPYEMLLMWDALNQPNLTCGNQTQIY
Method: On the other hand, when β1,3-galactosyltransferase activity of the secretory G4 was measured by using GlcNAc and GlcNAcβ1-3Galβ1-4Glc as receptor substrates, the activity was not detected.
(§1) The glycosyltransferase reaction was carried out as follows. The reaction was carried out at 37° C. for 16 hours in 40 μl of an assay solution [50 mmol/l MOPS (pH 7.5), 5 mmol/l UDP-GlcNAc (SIGMA), 5 mmol/l MnCl2, 10 mmol/l of a sugar chain substrate and 10 μl of the above eluate]. Next, the reaction solution was treated at 100° C. for 5 minutes and then centrifuged at 10,000×g for 20 minutes to obtain the supernatant, and a portion thereof was analyzed by using HPAE/PAD (High Performance Anion Pulsed Amperometoric Detection; manufactured by DIONEX). The specific method was carried out in the usual way [Anal. Biochem., 189, 151 (1990), J. Biol. Chem., 273, 433 (1998)].

secreted G3 = target: T2, secreted G3 (Homo sapiens, UniProt Q9NY97); test: β1,3-galactosyltransferase activity of the secreted G3; details: acceptor substrate, method of Example 11(2)
T2 construct: made in house; host or cells: Sf21 insect cells infected with recombinant baculovirus from pVL1393-F2G3
T2 sequence (Q9NY97 31-397): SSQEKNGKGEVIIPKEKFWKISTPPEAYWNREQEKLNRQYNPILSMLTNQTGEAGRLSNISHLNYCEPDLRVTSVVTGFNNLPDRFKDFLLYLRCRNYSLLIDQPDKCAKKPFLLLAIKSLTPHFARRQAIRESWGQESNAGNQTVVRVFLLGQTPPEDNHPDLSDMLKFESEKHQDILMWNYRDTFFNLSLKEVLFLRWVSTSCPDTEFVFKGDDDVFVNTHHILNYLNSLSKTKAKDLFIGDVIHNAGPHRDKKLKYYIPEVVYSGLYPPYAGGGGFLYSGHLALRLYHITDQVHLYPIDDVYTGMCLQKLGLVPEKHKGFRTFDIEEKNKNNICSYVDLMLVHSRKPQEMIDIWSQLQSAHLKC
Method: as §1
On the other hand, when β1,3-galactosyltransferase activity of the secreted G3 was measured by using GlcNAc and GlcNAcβ1-3Galβ1-4Glc as acceptor substrates, the activity was not detected. […] The method described in Example 11(2) was used.

secreted G7 = target: T3, secreted G7 (Homo sapiens, UniProt Q9C0J1); test: β1,3-galactosyltransferase activity of the secreted G7; details: acceptor substrate, method of Example 11(2)
T3 construct: made in house; host or cells: Sf21 insect cells infected with recombinant baculovirus from pVL1393-F2G7
T3 sequence (Q9C0J1 56-378): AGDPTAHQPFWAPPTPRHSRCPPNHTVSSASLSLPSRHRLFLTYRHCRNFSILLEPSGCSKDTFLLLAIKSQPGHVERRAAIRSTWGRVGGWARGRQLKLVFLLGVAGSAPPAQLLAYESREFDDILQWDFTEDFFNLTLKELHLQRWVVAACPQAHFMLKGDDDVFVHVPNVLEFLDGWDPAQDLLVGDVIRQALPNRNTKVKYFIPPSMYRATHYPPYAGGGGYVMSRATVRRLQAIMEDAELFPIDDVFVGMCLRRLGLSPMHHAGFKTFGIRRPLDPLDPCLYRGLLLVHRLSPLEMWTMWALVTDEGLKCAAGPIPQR
Method: as §1
On the other hand, when β1,3-galactosyltransferase activity of the secreted G7 was measured by using GlcNAc and GlcNAcβ1-3Galβ1-4Glc as acceptor substrates, the activity was not detected. […] The method described in Example 11(2) was used.

Measured: β1,3-galactosyltransferase activity

CC(=O)N[C@H]1C(O)O[C@H](CO)[C@@H](O)[C@@H]1O (stereo partly drawn) [GlcNAc, N-acetylglucosamine]
not detected: all assays above

CC(=O)N[C@H]1[C@H](O[C@H]2[C@@H](O)[C@@H](CO)O[C@@H](O[C@H]3[C@H](O)[C@@H](O)C(O)O[C@@H]3CO)[C@@H]2O)O[C@H](CO)[C@@H](O)[C@@H]1O (stereo partly drawn) [GlcNAcβ1-3Galβ1-4Glc]
not detected: all assays above

From patent US7972815B2, “Method of producing sugar chain using human G4 polypeptide” (Kyowa Hakko Kirin Co., Ltd., priority 1999, dated 2011)
